Experimental data from US10703757B2, “Compounds and methods for CDK8 modulation and indications therefor” (Plexxikon Inc., priority 2016, dated 2020).

Columns and labels:
[1] = tested on: CDK8 (phosphorylation of STAT1 at serine 727 in A549 cells); assay: Cell based Phospho-STAT1 assay (IFNγ-stimulated A549 cells, AlphaLISA); details: Homo sapiens, phospho-STAT1 after IFNγ stimulation
Summary of the method: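 A549 cells given serial compound dilutions for 1 h at 37 °C, then stimulated with IFNγ at 10 ng/mL final for 30 min. Lysate STAT1 Ser727 phosphorylation measured by AlphaLISA; % inhibition vs stimulated/unstimulated DMSO controls, IC50 by nonlinear regression.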

[2] = tested on: CDK8 (TCF/LEF luciferase reporter in HCT116 cells); assay: Cell based TCF/LEF reporter assay (HCT116+TCF/LEF luciferase); details: Homo sapiens
Summary of the method: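 Luciferase readout was corrected for viability (CellTiter-Fluor) and scaled between DMSO high and 10 uM CCT251545 low controls, giving IC50 by nonlinear regression. Compounds, serially diluted, were incubated 24 h at 37 °C on HCT116 clones stably expressing a TCF/LEF-driven luciferase reporter.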

SMILES	IC50 ([1]; A549, A549 cells) [nM]	IC50 ([2]; HCT-116, 24 h) [nM]	IC50 ([1]; A549 cells) [nM]	IC50 ([2]; HCT-116, 24 hours) [nM]
N#CC1CCC(c2nccn3ncc(-c4ccc(N5CCOCC5)c(F)c4)c23)CC1 (centres unmarked) [Compound P-0101, 4-(3-(3-fluoro-4-morpholinophenyl)pyrazolo[1,5-a]pyrazin-4-yl)cyclohexane-1-carbonitrile]			0.1 to 100	100 to 1000
N#CC1CCN(c2cccn3ncc(-c4ccc(NC(=O)OCc5ccccc5)cc4)c23)CC1 [Compound P-0259, benzyl (4-(4-(4-cyanopiperidin-1-yl)pyrazolo[1,5-a]pyridin-3-yl)phenyl)carbamate]	100 to 1000	100 to 1000		
N#CC1CC=C(c2nccn3ncc(-c4ccc(OCc5ccccc5)c(F)c4)c23)CC1 (centres unmarked) [Compound P-0039, 4-(3-(4-(benzyloxy)-3-fluorophenyl)pyrazolo[1,5-a]pyrazin-4-yl)cyclohex-3-ene-1-carbonitrile]	100 to 1000	100 to 1000		
Cc1ccc2cc(-c3cnn4ccnc(C5=CCC(C#N)CC5)c34)ccc2n1 (centres unmarked) [Compound P-0186, 4-(3-(2-methylquinolin-6-yl)pyrazolo[1,5-a]pyrazin-4-yl)cyclohex-3-ene-1-carbonitrile]	0.1 to 100	0.1 to 100		
CCCS(=O)(=O)Nc1ccc2cc(-c3cnn4ccnc(C#CC(C)(C)C(N)=O)c34)ccc2c1 [Compound P-0069, 2,2-dimethyl-4-(3-(6-(propylsulfonamido)naphthalen-2-yl)pyrazolo[1,5-a]pyrazin-4-yl)but-3-ynamide]	0.1 to 100	0.1 to 100		
Cn1cc(-c2ccc(-c3cnn4cccc(C#CC(C)(C)C(=O)O)c34)cc2)cn1 [Compound P-0297, 2,2-dimethyl-4-(3-(4-(1-methyl-1H-pyrazol-4-yl)phenyl)pyrazolo[1,5-a]pyridin-4-yl)but-3-ynoic acid]	100 to 1000	0.1 to 100		
CC(C)(O)Cn1cc(-c2ccc(-c3cnn4ccnc(C5=CCC(C#N)CC5)c34)cc2Cl)cn1 (centres unmarked) [Compound P-0042, 4-(3-(3-chloro-4-(1-(2-hydroxy-2-methylpropyl)-1H-pyrazol-4-yl)phenyl)pyrazolo[1,5-a]pyrazin-4-yl)cyclohex-3-ene-1-carbonitrile]	0.1 to 100	0.1 to 100		
CC(C)(C#Cc1cccn2ncc(-c3ccc4c(cnn4C(F)F)c3)c12)C(=O)O [Compound P-0067, 4-(3-(1-(difluoromethyl)-1H-indazol-5-yl)pyrazolo[1,5-a]pyridin-4-yl)-2,2-dimethylbut-3-ynoic acid]	100 to 1000	0.1 to 100		
COC(=O)c1ccc(-c2cnn3cccc(C4=CCC(C#N)CC4)c23)cc1C (centres unmarked) [Compound P-0123, methyl 4-(4-(4-cyanocyclohex-1-en-1-yl)pyrazolo[1,5-a]pyridin-3-yl)-2-methylbenzoate]	0.1 to 100	0.1 to 100		
Cn1cc(-c2ccc(-c3cnc4cccc(N5CCC6(CC5)C(=O)Nc5ccccc56)n34)cc2)cn1 [Compound P-0454, 1′-(3-(4-(1-methyl-1H-pyrazol-4-yl)phenyl)imidazo[1,2-a]pyridin-5-yl)spiro[indoline-3,4′-piperidin]-2-one]	0.1 to 100	0.1 to 100		
N#CC1CC=C(c2nccn3ncc(-c4ccc(OCCOC5CCOCC5)cc4)c23)CC1 (centres unmarked) [Compound P-0146, 4-(3-(4-(2-((tetrahydro-2H-pyran-4-yl)oxy)ethoxy)phenyl)pyrazolo[1,5-a]pyrazin-4-yl) cyclohex-3-ene-1-carbonitrile]	0.1 to 100	0.1 to 100		
N#CC1CCN(c2c(-c3ccc(-n4cccn4)cc3)cnc3[nH]ccc23)CC1 [Compound P-0219, 1-(5-(4-(1H-pyrazol-1-yl)phenyl)-1H-pyrrolo[2,3-b]pyridin-4-yl)piperidine-4-carbonitrile]	0.1 to 100	0.1 to 100		
CC(C)(O)Cn1cc2cc(-c3cnn4ccnc(C5=CCC(C#N)CC5)c34)ccc2n1 (centres unmarked) [Compound P-0106, 4-(3-(2-(2-hydroxy-2-methylpropyl)-2H-indazol-5-yl)pyrazolo[1,5-a]pyrazin-4-yl)cyclohex-3-ene-1-carbonitrile]	0.1 to 100	100 to 1000		

Continued, in another order:

IC50 ([1]; A549, A549 cells) [nM]	IC50 ([2]; HCT-116, 24 h) [nM]	SMILES	IC50 ([1]; A549 cells) [nM]	IC50 ([2]; HCT-116, 24 hours) [nM]
0.1 to 100	0.1 to 100	CC(C)(O)Cn1cc(-c2ccc(-c3cnc4[nH]ccc4c3C3=CCC(C#N)CC3)cc2)cn1 (centres unmarked) [Compound P-0332, 4-(5-(4-(1-(2-hydroxy-2-methylpropyl)-1H-pyrazol-4-yl)phenyl)-1H-pyrrolo[2,3-b]pyridin-4-yl)cyclohex-3-ene-1-carbonitrile]		
100 to 1000	100 to 1000	N#CC1CC=C(c2c(-c3ccc4c(c3)CNC4=O)cnc3[nH]ccc23)CC1 (centres unmarked) [Compound P-0244, 4-(5-(1-oxoisoindolin-5-yl)-1H-pyrrolo[2,3-b]pyridin-4-yl)cyclohex-3-ene-1-carbonitrile]		
0.1 to 100	0.1 to 100	CC(C)(C#Cc1cccn2ncc(-c3ccc(-c4cnn(CCS(C)(=O)=O)c4)cc3)c12)C(N)=O [Compound P-0464, 2,2-dimethyl-4-(3-(4-(1-(2-(methylsulfonyl)ethyl)-1H-pyrazol-4-yl)phenyl)pyrazolo[1,5-a]pyridin-4-yl)but-3-ynamide]		
0.1 to 100	0.1 to 100	CC(C)(C#Cc1cccn2ncc(-c3ccc(-c4cnn(CCCC#N)c4)cc3)c12)C(N)=O [Compound P-0461, 4-(3-(4-(1-(3-cyanopropyl)-1H-pyrazol-4-yl)phenyl)pyrazolo[1,5-a]pyridin-4-yl)-2,2-dimethylbut-3-ynamide]		
0.1 to 100	0.1 to 100	N#CC1CC=C(c2nccn3ncc(-c4ccc(OCCN5CCOCC5)cc4)c23)CC1 (centres unmarked) [Compound P-0085, 4-(3-(4-(2-morpholinoethoxy)phenyl)pyrazolo [1,5-a]pyrazin-4-yl)cyclohex-3-ene-1-carbonitrile]		
0.1 to 100	0.1 to 100	N#CCCn1cc(-c2ccc(-c3cnn4ccnc(C5CCC(C#N)CC5)c34)cc2)cn1 (centres unmarked) [Compound P-0098, 4-(3-(4-(1-(2-cyanoethyl)-1H-pyrazol-4-yl)phenyl)pyrazolo[1,5-a]pyrazin-4-yl)cyclohexane-1-carbonitrile]		
0.1 to 100	0.1 to 100	Cn1cc(-c2ccc(-c3cnc4[nH]ccc4c3C#CC(C)(C)O)cc2)cn1 [Compound P-0341, 2-methyl-4-(5-(4-(1-methyl-1H-pyrazol-4-yl)phenyl)-1H-pyrrolo[2,3-b]pyridin-4-yl)but-3-yn-2-ol]		
0.1 to 100	0.1 to 100	CNC(=O)c1ccc2cc(-c3cnc4[nH]ccc4c3C3=CCC(C#N)CC3)ccc2c1 (centres unmarked) [Compound P-0268, 6-(4-(4-cyanocyclohex-1-en-1-yl)-1H-pyrrolo[2,3-b]pyridin-5-yl)-N-methyl-2-naphthamide]		
0.1 to 100	0.1 to 100	Cn1ncc2cc(-c3cnn4ccnc(C5=CCC(C(N)=O)CC5)c34)ccc21 (centres unmarked) [Compound P-0136, 4-(3-(1-methyl-1H-indazol-5-yl)pyrazolo[1,5-a]pyrazin-4-yl)cyclohex-3-ene-1-carboxamide]		
0.1 to 100	0.1 to 100	N#CC1CCN(c2c(-c3ccc(-n4ccnn4)cc3)cnc3[nH]ccc23)CC1 [Compound P-0220, 1-(5-(4-(1H-1,2,3-triazol-1-yl)phenyl)-1H-pyrrolo[2,3-b]pyridin-4-yl)piperidine-4-carbonitrile]		
0.1 to 100	0.1 to 100	N#CC1CC=C(c2cccn3ncc(-c4ccc(OCC5CCCCO5)cc4)c23)CC1 (centres unmarked) [Compound P-0182, 4-(3-(4-((tetrahydro-2H-pyran-2-yl)methoxy)phenyl)pyrazolo[1,5-a]pyridin-4-yl)cyclohex-3-ene-1-carbonitrile]		
0.1 to 100	0.1 to 100	N#CC1CC=C(c2nccn3ncc(-c4ccc(OCCCN5CCOCC5)cc4)c23)CC1 (centres unmarked) [Compound P-0130, 4-[3-[4-(3-morpholinopropoxy)phenyl]pyrazolo[1,5-a]pyrazin-4-yl]cyclohex-3-ene-1-carbonitrile]		
0.1 to 100	100 to 1000	Cn1ncc2cc(-c3cnn4cccc(C#CC5(O)COC5)c34)ccc21 [Compound P-0362, 3-((3-(1-methyl-1H-indazol-5-yl)pyrazolo[1,5-a]pyridin-4-yl)ethynyl)oxetan-3-ol]		
0.1 to 100	0.1 to 100	N#CC1CC=C(c2nccn3ncc(-c4ccc5c(cnn5CC(F)(F)F)c4)c23)CC1 (centres unmarked) [Compound P-0063, 4-(3-(1-(2,2,2-trifluoroethyl)-1H-indazol-5-yl)pyrazolo[1,5-a]pyrazin-4-yl)cyclohex-3-ene-1-carbonitrile]		
1000 to 10000	1000 to 10000	CS(=O)(=O)C1CCC(Oc2cccc3ncc(-c4ccc(-c5cnn(C(F)F)c5)cc4)n23)C1 (centres unmarked) [Compound P-0321, 3-(4-(1-(difluoromethyl)-1H-pyrazol-4-yl)phenyl)-5-((3-(methylsulfonyl)cyclopentyl)oxy) imidazo[1,2-a]pyridine]		
0.1 to 100	100 to 1000	CC(C)(O)C#Cc1cccn2ncc(-c3ccc4nccn4c3)c12 [Compound P-0286, 4-(3-(imidazo[1,2-a]pyridin-6-yl)pyrazolo[1,5-a]pyridin-4-yl)-2-methylbut-3-yn-2-ol]		
0.1 to 100	0.1 to 100	N#CC1CC=C(c2cccn3ncc(-c4ccc(Cl)cc4)c23)CC1 (centres unmarked) [Compound P-0188, 4-(3-(4-chlorophenyl)pyrazolo[1,5-a]pyridin-4-yl)cyclohex-3-ene-1-carbonitrile]		
1000 to 10000	1000 to 10000	CC(=O)C1CCN(c2cccc3ncc(C#Cc4cnn(C)c4)n23)CC1 [Compound P-0240, 1-(1-(3-((1-methyl-1H-pyrazol-4-yl)ethynyl)imidazo[1,2-a]pyridin-5-yl)piperidin-4-yl)ethan-1-one]		
